# Data: patent publication US8759104B2, “Cationic lipids” (The University Court of the University of Edinburgh, priority 2010, dated 2014)
# Tested on: HeLa cells
# Experiment: Transfection of pEGFP-C1 reporter plasmid into HeLa cells, GFP expression by flow cytometry
# Type: cell-based, human
# Details: HeLa cells 48 h after transfection with reporter plasmid, flow cytometry
# Method: The corresponding cationic lipid (1 mM in methanol) were mixed in different proportions with DOPE (10 mg/mL in chloroform) and the organic solvent removed by evaporation in an oven (37° C.) overnight. The resultant thin films were then hydrated with PBS. The solutions were vortexed (10-20 s) and incubated at ambient temperature for 20 min. Plasmid DNA or siRNA solution (0.04 mg/mL in PBS or another isotonic solution) was subsequently added and the solution vortexed (10-20 s). The lipoplexes were incubated at room temperature for 20 min before being used.
# Human HeLa cells were grown in RPMI supplemented with 4 mM glutamine, 10% FCS and 100 units/ml penicillin/streptomycin (RPMI-CM) until 80% confluence. HEK293 and B16F10 cells were grown in DMEM supplemented with 4 mM glutamine, 10% FCS and 100 units/ml penicillin/streptomycin (DMEM-CM) until 80% confluence. Cells were then suspended using trypsin/EDTA and counted. 2×10^4 cells in 150 μL of media per well were seeded in 96 well plates and incubated overnight. The day afterwards, the different lipoplex formulations were added. Each experiment was performed in quadruplicate, using Effectene® Transfection Reagent (Qiagen), Lipofectamine™ 2000 (Invitrogen) and Fugene (Roche) as positive controls and untreated cells as negative controls. After two days incubation at 37° C. and 5% CO2 (the change of media after transfection was not necessary), the green fluorescent protein (GFP) expression, as a consequence of transfecting the pEGFP-C1, was evidenced using a fluorescent microscope (Leica) and measured by flow cytometry. For the flow cytometry analysis, cells were washed twice with PBS, detached with trypsin/EDTA, harvested with 2% ferum bovine serum (FBS) in PBS, centrifuged and resuspended with 2% FBS in PBS and analyzed using a BD FACSaria flow cytometer. Transfection efficiency was measured as percentage of transfected cells.
# Reagents that obtained greater than 50% transfection were also analyzed against HEK293 and B16F10 cell lines. Transfection results (+ percentages of transfection between 5-25%; ++ percentages of transfection between 25-50%; N.D. not determined). MTT toxicity assay results are indicated between brackets with 100% being cell viability of untreated cells.
row,Structure (SMILES),"Transfection results (percentage of transfected cells), HeLa"
1,CCCCCCCC/C=C\CCCCCCCC(=O)NCCCN(CCCNC(=O)CCCCCCC/C=C\CCCCCCCC)C(=O)/C=C\C(=O)N[C@@H](CCCNC(=N)N)C(N)=O.O=C(O)C(F)(F)F [Compound A1-Sp4-O],+ (percentages of transfection between 5-25%)
2,CCCCCCCCCCCCCCCC(=O)NCCCN(CCCNC(=O)CCCCCCCCCCCCCCC)C(=O)CCC(=O)N[C@@H](CCCNC(=N)N)C(=O)N[C@@H](CCCNC(=N)N)C(N)=O.O=C(O)C(F)(F)F.O=C(O)C(F)(F)F [Compound A2-Sp3-P],+ (percentages of transfection between 5-25%)
3,CCCCCCCCCCCCCCCCCCCCCCCC(=O)NCCCN(CCCNC(=O)CCCCCCCCCCCCCCCCCCCCCCC)C(=O)CCC(=O)N[C@@H](CCCNC(=N)N)C(=O)N[C@@H](CCCNC(=N)N)C(=O)N[C@@H](CCCNC(=N)N)C(N)=O.O=C(O)C(F)(F)F.O=C(O)C(F)(F)F.O=C(O)C(F)(F)F [Compound A3-Sp3-L],+ (percentages of transfection between 5-25%)
4,CCCCCCCCCCCCCCCC(=O)NCCN(CCNC(=O)CCCCCCCCCCCCCCC)C(=O)CCC(=O)N[C@@H](CCCNC(=N)N)C(N)=O.O=C(O)C(F)(F)F [Compound A1-Sp1-P],+ (percentages of transfection between 5-25%)
5,CCCCCCCCCCCCCCCCCCCCCCCC(=O)NCCN(CCNC(=O)CCCCCCCCCCCCCCCCCCCCCCC)C(=O)/C=C\C(=O)N[C@@H](CCCNC(=N)N)C(N)=O.O=C(O)C(F)(F)F [Compound A1-Sp2-L],+ (percentages of transfection between 5-25%)
6,CCCCCCCC/C=C\CCCCCCCC(=O)NCCN(CCNC(=O)CCCCCCC/C=C\CCCCCCCC)C(=O)CCC(=O)N[C@@H](CCCNC(=N)N)C(N)=O.O=C(O)C(F)(F)F [Compound A1-Sp1-O],+ (percentages of transfection between 5-25%)
7,CCCCCCCCCCCCCCCC(=O)NCCCN(CCCNC(=O)CCCCCCCCCCCCCCC)C(=O)/C=C\C(=O)N[C@@H](CCCNC(=N)N)C(N)=O.O=C(O)C(F)(F)F [Compound A1-Sp4-P],+ (percentages of transfection between 5-25%)
8,CCCCCCCC/C=C\CCCCCCCC(=O)NCCCN(CCCNC(=O)CCCCCCC/C=C\CCCCCCCC)C(=O)CCC(=O)N[C@@H](CCCNC(=N)N)C(=O)N[C@@H](CCCNC(=N)N)C(=O)N[C@@H](CCCNC(=N)N)C(N)=O.O=C(O)C(F)(F)F.O=C(O)C(F)(F)F.O=C(O)C(F)(F)F [Compound A3-Sp3-O],++ (percentages of transfection between 25-50%)
9,CCCCCCCCCCCCCCCCCC(=O)NCCCN(CCCNC(=O)CCCCCCCCCCCCCCCCC)C(=O)CCC(=O)N[C@@H](CCCNC(=N)N)C(N)=O.O=C(O)C(F)(F)F [Compound A1-Sp3-S],+ (percentages of transfection between 5-25%)
10,CCCCCCCCCCCCCCCCCCCCCCCC(=O)NCCN(CCNC(=O)CCCCCCCCCCCCCCCCCCCCCCC)C(=O)CCC(=O)N[C@@H](CCCNC(=N)N)C(N)=O.O=C(O)C(F)(F)F [Compound A1-Sp1-L],+ (percentages of transfection between 5-25%)
11,CCCCCCCC/C=C\CCCCCCCC(=O)NCCN(CCNC(=O)CCCCCCC/C=C\CCCCCCCC)C(=O)/C=C\C(=O)N[C@@H](CCCNC(=N)N)C(N)=O.O=C(O)C(F)(F)F [Compound A1-Sp2-O],+ (percentages of transfection between 5-25%)
